Laboratory results reported in US20250170267A1, “ANTIBODY-DRUG CONJUGATE PRECURSOR AND INTERMEDIATE FOR SYNTHESIS THEREOF” (UBE Corporation, priority 2022, published 2025).
Numbered stars: 1 amine (or outer) side, 2 acyl side, 3 side chain; on linkers, the order of the positions; unused ones are H or OH. Square brackets hold non-standard residues; d marks the D form. Peptide text beside a SMILES is read from it. * marks the point of attachment. Exatecan = CC[C@@]1(O)C(=O)OCc2c1cc1n(c2=O)Cc2c-1nc1cc(F)c(C)c3c1c2[C@@H](N*)CC3; Hexanoyl(6-maleimido) = O=C1C=CC(=O)N1CCCCCC(=O)*; NHCH2OCH2CO = O=C(COCN[*:1])[*:2]; hSer(lactone) = O=C1OCC[C@@H]1N*

How the values were obtained:
[1] = target: T1, human liver Cathepsin B (Homo sapiens, UniProt P07858); assay: Metabolism test using human liver Cathepsin B; format: in vitro ADME; settings: 37° C., 24 hours, released drug, LC-MS/MS
T1 construct: human liver Cathepsin B (manufactured by Sigma-Aldrich Co. LLC, Cat No. C8571 25 μg/vial); purchased Sigma-Aldrich Co. LLC C8571; host or cells: human liver
Method: To human liver Cathepsin B (manufactured by Sigma-Aldrich Co. LLC, Cat No. C8571 25 μg/vial)(corresponding to 400 Unit/mL)(5 μL), X10 Catabolic Buffer (manufactured by SEKISUI-Xenotech, LLC., K5200)(10 μL), 2.5 mM Bovine Serum Albumin (manufactured by FUJIFILM Wako Pure Chemical Corporation, Cat No. 012-15093)(5 μL), and distilled water (manufactured by FUJIFILM Wako Pure Chemical Corporation, for HPLC)(55 μL) was added 1.2 μM test compound (antibody-drug conjugate prepared in ADC Production examples)(25 μL) dissolved in PBS to prepare a reaction solution. After the reaction solution was incubated at 37° C. for 24 hours, “an antitumor drug molecule or an analog thereof, or a derivative thereof” released from the antibody-drug conjugate into the reaction solution was quantified by LC-MS/MS (high performance liquid chromatography/mass spectrometer system) under the following conditions. LC-MS/MS analysis conditions
(§1) LC: LC20 or LC30 HPLC system manufactured by Shimadzu Corporation
(§2) Column: Phenomenex Kinetex C18 (50×2.1 mm, 2.6 μm)
(§3) Column temperature: 40° C.
(§4) Mobile phase A: 0.1% aqueous solution of formic acid, Mobile phase B: 0.1% solution of formic acid in a mixture of 50% acetonitrile/methanol
(§5) Mode: Positive or Negative
(§6) The release rate (%) of drug was calculated by the following equation.

[2] = Pharmacokinetic test (serum trastuzumab residual rate); format: in vivo; settings: female BALB/c mouse, intravenous; 3 days vs 5 minutes after administration
Source text: After a prescribed time period, the blood was collected from the jugular vein or abdominal vein, and centrifuged to prepare a serum. The resulting serum was cryopreserved until the measurement.

[3] = test system: human liver lysosome; assay: Metabolism test using human liver lysosomal fraction; format: in vitro ADME; settings: 37° C., 24 hours, released drug, LC-MS/MS
Method: To a reaction composition solution (X10 Catabolic Buffer (manufactured by SEKISUI-Xenotech, LLC., K5200))(60 μL) in which human liver lysosome (manufactured by SEKISUI-Xenotech, LLC., Cat No. H610.L 2.5 mg/mL)(corresponding to 0.125 mg of protein) was suspended and distilled water (manufactured by FUJIFILM Wako Pure Chemical Corporation, for HPLC)(10 μL) was added 1.2 μM test compound (antibody-drug conjugate produced in ADC Production examples)(25 μL) dissolved in PBS to prepare a reaction solution. After the reaction solution was incubated at 37° C. for 24 hours, “an antitumor drug molecule or an analog thereof, or a derivative thereof” released from the antibody-drug conjugate into the reaction solution was quantified by LC-MS/MS (high performance liquid chromatography/mass spectrometer system) under the following conditions. LC-MS/MS analysis conditions
as §1, §2, §3, §4, §5, §6

[4] = target: T2, human topoisomerase I (Homo sapiens, UniProt P11387); assay: Topoisomerase I activity inhibition test; format: biochemical; settings: supercoiled plasmid DNA, 37° C., 60 minutes
T2 construct: purchased Sigma T9069
T2 sequence (P11387 1-765): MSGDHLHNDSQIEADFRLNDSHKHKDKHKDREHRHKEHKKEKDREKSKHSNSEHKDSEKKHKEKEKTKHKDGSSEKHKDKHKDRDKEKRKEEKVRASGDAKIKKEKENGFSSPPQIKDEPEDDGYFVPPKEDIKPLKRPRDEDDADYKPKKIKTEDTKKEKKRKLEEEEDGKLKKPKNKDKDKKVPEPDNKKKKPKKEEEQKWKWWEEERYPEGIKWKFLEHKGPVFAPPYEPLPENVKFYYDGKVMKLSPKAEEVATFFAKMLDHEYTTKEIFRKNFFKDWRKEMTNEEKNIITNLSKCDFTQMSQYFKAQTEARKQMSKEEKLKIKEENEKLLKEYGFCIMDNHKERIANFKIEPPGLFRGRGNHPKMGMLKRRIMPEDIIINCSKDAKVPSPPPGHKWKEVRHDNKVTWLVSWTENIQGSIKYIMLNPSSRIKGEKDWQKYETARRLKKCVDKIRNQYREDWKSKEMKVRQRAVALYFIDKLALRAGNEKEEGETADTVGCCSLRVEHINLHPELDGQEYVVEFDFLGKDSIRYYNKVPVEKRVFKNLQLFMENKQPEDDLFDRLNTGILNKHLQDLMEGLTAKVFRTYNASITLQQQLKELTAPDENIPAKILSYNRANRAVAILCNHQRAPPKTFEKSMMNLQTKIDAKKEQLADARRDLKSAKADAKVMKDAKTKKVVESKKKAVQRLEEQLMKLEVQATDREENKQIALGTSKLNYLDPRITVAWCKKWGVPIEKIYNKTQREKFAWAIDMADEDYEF
Method: For measuring topoisomerase I activity inhibitory actions, Human DNA Topoisomerase I Assay Kit (manufactured by ProFoldin, HRA100K) was used. A human topoisomerase I (manufactured by Sigma, T9069) was added to a Tris-HCl buffer containing KCl, DTT, MgCl2, EDTA, and BSA to prepare a reaction solution. The reaction solution (35.2 μL) and a test compound solution (4.4 μL) prepared by an aqueous solution containing 10% DMSO were mixed in a 1.5 mL microtube, and the resulting mixture was reacted at 37° C. for 10 minutes. Subsequently, a supercoiled plasmid DNA (4.4 μL) was added thereto, and the resulting mixture was reacted at 37° C. for 60 minutes. After the reaction, the solution was added to a 96 well plate (manufactured by Corning Inc., 3904) at 40 μL/well, and a Dye H19 solution (250 μL) diluted 10 times with the buffer included with the kit was added thereto. A microplate reader (Infinite F500, manufactured by TECAN) was used to measure the fluorescence intensity (excitation wavelength: 485 nm, detection wavelength: 535 nm) of each well.
The topoisomerase I activity inhibition rate (%) was calculated by the following equation.

[5] = Retention time in HPLC (index of hydrophilicity); format: physicochemical; settings: Table 6 (eribulin precursors); BEH C18, 0.1% formic acid/acetonitrile gradient, 40° C.
Method: As an index of hydrophilicity of the Examples, the retention time (RT) in HPLC analysis was measured, and compared.
Device: LCMS2020 system Shimadzu Corporation
Column: Acquity UPLC (registered trademark) BEH C18 (2.1×50 mm, 1.7 μm)_Waters
Eluent: Solution A: 0.1% aqueous solution of formic acid, Solution B: 0.1% solution of formic acid in acetonitrile

Compound: CC[C@@]1(O)C(=O)OCc2c1cc1n(c2=O)Cc2c-1nc1cc(F)c(C)c3c1c2[C@@H](NC(=O)COCNC(=O)CNC(=O)[C@H](Cc1ccccc1)NC(=O)CNC(=O)CNC(=O)[C@H](CC(=O)N[C@H]1CCOC1=O)NC(=O)CCCCCN1C(=O)C=CC1=O)CC3 [Example 13] ({Hexanoyl(6-maleimido)}-D(hSer(lactone))GGFG[NHCH2OCH2CO]-Exatecan)
- Release rate (%) of drug from ADC [1]: 24%
- Serum trastuzumab residual rate after 3 days from administration (%) [2]: 25%
- Release rate (%) of drug from ADC [3]: 76%

Compound: CC[C@@]1(O)C(=O)OCc2c1cc1n(c2=O)Cc2c-1nc1cc(F)c(C)c3c1c2[C@@H](NC(=O)c1cccc(N)c1)CC3 [Example U-004]
- IC50 [4]: ≤ 15 µM

Compound: CC[C@@]1(O)C(=O)OCc2c1cc1n(c2=O)Cc2c-1nc1cc(F)c(C)c3c1c2[C@@H](NC(=O)c1ccc(N)cc1)CC3 [Example U-005]
- IC50 [4]: ≤ 15 µM

Compound: CC[C@@]1(O)C(=O)OCc2c1cc1n(c2=O)Cc2c-1nc1cc(F)c(C)c3c1c2[C@@H](NC(=O)Cc1ccc(N)cc1)CC3 [Example U-007]
- IC50 [4]: ≤ 15 µM

Compound: CC[C@@]1(O)C(=O)OCc2c1cc1n(c2=O)Cc2c-1nc1cc(F)c(C)c3c1c2[C@@H](NC(=O)CCO)CC3 [Example U-002]
- IC50 [4]: ≤ 15 µM

Compound: CC[C@@]1(O)C(=O)OCc2c1cc1n(c2=O)Cc2c-1nc1cc(F)c(C)c3c1c2[C@@H](NC(=O)Cc1cccc(N)c1)CC3 [Example U-006]
- IC50 [4]: ≤ 15 µM

Compound: C=C1C[C@@H]2CC[C@@]34C[C@H]5O[C@H]6[C@@H](O3)[C@H]3O[C@H](CC[C@@H]3O[C@H]6[C@H]5O4)CC(=O)C[C@@H]3[C@@H](OC)[C@@H](C[C@H](O)CNC(=O)OCc4ccc(NC(=O)[C@H](CCCNC(N)=O)NC(=O)[C@@H](NC(=O)[C@H](CC(=O)N[C@H]5CCOC5=O)NC(=O)CCOCCOCCOP(=O)(O)OCCNC(=O)[C@H](CNC(=O)CCP(=O)(O)O)N5C(=O)C=CC5=O)C(C)C)cc4)O[C@H]3C[C@H]3O[C@@H](CC[C@@H]1O2)C[C@@H](C)C3=C [Example 17]
- Release rate (%) of drug from ADC [1]: 58%
- Release rate (%) of drug from ADC [3]: 56%
- Retention time in HPLC measurement [5]: 1.04 min
